Residues, ends and D or L forms follow the SMILES beside them. *: point of attachment. Cbz = O=C(OCc1ccccc1)*
Key:
[1] = test system: ob/ob mice; experiment: IP injection of Z-PP, food intake in ob/ob mice; format: in vivo, mouse
Protocol: For this study 10 ob/ob mice were used. Mice were injected at the beginning of the dark phase intraperitoneally with 2 doses of 5 mg Z-PP every 12 hours and food intake was measured every 12 hours after the last injection. Control mice were injected at the same times and with the same volume of vehicle. Note that for Z-PP doses lower than 5 mg were ineffective in reducing food intake.

[2] = test system: wild type mice; experiment: IP administration of α-MSH and MTII, food intake in wild type mice; format: in vivo, mouse; settings: 200 nmol ip
Protocol: Wild type and PRCP KO mice were used in this study. Animals were single caged and injected with saline at the beginning of the dark phase for 3 days. For each mouse, food intake was measured at 4, 12 and 24 hours after the injection. After 3 days, animals were divided in 6 groups: 1) wild type mice receiving 200 nmol MTII in saline; 2) wild type mice receiving 200 nmol α-MSH in saline; 3) wild type mice receiving saline; 4) PRCP KO mice receiving 200 nmol of MTII in saline; 5) PRCP KO mice receiving 200 nmol α-MSH; 6) PRCP KO mice receiving saline.

[3] = target: T1, rPRCP51 (recombinant PRCP) (Homo sapiens, UniProt P42785); experiment: Substrate inhibition assay: rPRCP51-induced prekallikrein (PK) activation; format: biochemical; settings: at 1 mM peptide
T1 construct: Human PRCP cDNA, lacking the first 391 base pairs of PRCP (Prcpnt391-1845); BiP secretion signal (from vector pMT/BiP/V5-His C) (N); His tag (from vector pMT/BiP/V5-His C) (C); made in house; host or cells: Schneider 2 (Drosophila S2) cells
T1 sequence (P42785 46-496): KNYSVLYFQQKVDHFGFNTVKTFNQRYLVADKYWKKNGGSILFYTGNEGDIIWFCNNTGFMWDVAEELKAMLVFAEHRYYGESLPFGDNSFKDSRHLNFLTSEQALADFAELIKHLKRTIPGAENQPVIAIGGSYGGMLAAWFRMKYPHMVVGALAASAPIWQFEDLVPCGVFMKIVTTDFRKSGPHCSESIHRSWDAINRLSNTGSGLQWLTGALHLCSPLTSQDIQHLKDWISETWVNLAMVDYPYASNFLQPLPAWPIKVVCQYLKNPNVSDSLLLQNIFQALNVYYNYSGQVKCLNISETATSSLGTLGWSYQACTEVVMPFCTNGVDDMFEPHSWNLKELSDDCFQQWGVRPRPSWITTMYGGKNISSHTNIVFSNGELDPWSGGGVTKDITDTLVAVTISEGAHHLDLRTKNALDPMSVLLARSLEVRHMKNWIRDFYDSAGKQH
Protocol: Panel A: Increasing concentration of α-MSH, MSH1-12, or AgII (0.001-1 mM) were incubated with 8 nM of recombinant PRCP51 at 37° C. in microtiter plate cuvette wells with preabsorbed HK and containing 20 nM PK. The liberation of paranitroanilide (pNA) from the S2302 by the formed plasma kallikrein in the presence of the peptide was measured at 405 nm and the results are expressed as residual formed plasma kallikrein activity. The data represent the mean±SEM of three independent measurements.
pMT/BiP/V5-His C was employed as the basal plasmid in vector construction. […]
Samples containing 8 nM rPRCP51 in […] total volume were prepared in the absence or presence of increasing concentration of peptide α-MSH, MSH1-12 or AgII in HEPES carbonate buffer (137 mM NaCl, 3 mM KCl, 12 mM NaHCO3, 14.7 mM HEPES, 5.5 mM dextrose and 0.1% gelatin, pH 7.1 containing 10 mM CaCl2, and 1 mM MgCl2) in microtiter plate cuvette wells with previously absorbed HK at […] and with 20 nM PK at 37° C. The ability of purified rPRCP51 to activate PK bound to HK on plastic microtiter plates was determined in the absence or presence of increasing concentrations (0.001-1 mM) of the peptide (McCarthy et al., 2003; Shariat-Madar et al., 2002). […] The rate of hydrolysis was recorded at different concentrations of peptide and expressed as percent kallikrein activity remaining. […]

[4] = test system: POMC-GFP neurons; experiment: Whole cell patch clamp electrophysiology of POMC-GFP neurons in hypothalamic slices; format: cell-based, mouse; settings: bath application, current clamp
Protocol: Coronal hypothalamic brain slices (˜300 μm) were prepared with a Vibratome from POMC-GFP transgenic mice. Slices were maintained at room temperature in artificial cerebrospinal fluid saturated with 95% O2 and 5% CO2. Slices were equilibrated in the recording chamber for 1 hr at 35° C. in ACSF saturated with 95% O2 and 5% CO2 prior to recordings. ACSF contains (mM): NaCl, 124; KCl, 3; CaCl2, 2; MgCl2, 2; NaH2PO4, 1.23; NaHCO3, 26; glucose, 10; pH 7.4 with NaOH. An upright fluorescence/infrared microscope with long working distance objectives (Olympus BX51WI) and fluorescence filter sets for GFP (Chroma Technology Corp) was used. Fluorescent POMC-GFP neurons were selected and a patch pipette (4-6 mega Ohm resistance) was advanced onto the surface of the neuron by a micromanipulator (Sutter 225). The pipette solution contains (in mM) K gluconate, 128; HEPES, 10; EGTA, 1; KCl, 10; MgCl2, 1; CaCl2, 0.3; (Mg)-ATP, 5; (Na)GTP, 0.3, PH.7.4. Whole cell patch clamp experiments were performed with a Multiclamp 700A amplifier (Axon Instruments, Inc). Whole cell current clamp was used to monitor the effect of α-MSH on membrane potential of recorded neurons held at resting membrane potential. […] Eletrophysiological data were analyzed with Axograph 4.9 (Axon Instruments), plotted with Igor Pro software (WaveMetrics, Lake Oswego, Oreg., USA) and presented as the mean±SEM. […]

[5] = test system: fasted rats; experiment: ICV injection of α-MSH and α-MSH1-12, food intake in fasted rats; format: in vivo, rat; settings: 2.5 μg ICV, 12 hour-fasted rats
Protocol: Eighteen male rats (200-250 gr) were used in this study. Animals with a third ventricle cannulation were purchased from Taconic Farms Inc. Rats were single caged and divided in 3 groups: animals injected with saline, animals injected with 2.5 μg of […]-MSH and animals injected with 2.5 μg of α-MSH1-12. All the rats were fasted overnight. The next morning, the animals were injected and a known amount of food was given and measured after 2 hours from re-feeding (Abbott et al., 2000).

[6] = test system: rats; experiment: ICV injection of B-PP, food intake in rats; format: in vivo, rat
Protocol: Twelve male rats (200-250 gr) were used in this study. Animals with a third ventricle cannulation were purchased from Taconic Farms Inc. […] A known amount of food was given to the animals and weighted every 24 hours.

[7] = test system: ob/ob mice; experiment: IP injection of B-PP, food intake in ob/ob mice; format: in vivo, mouse; settings: 400 μg systemically (ip)
Protocol: For this study 10 ob/ob mice were used. Mice were injected at the beginning of the dark phase intraperitoneally with 2 doses of […] of B-PP every 24 hours and food intake was measured before each injection and every 24 hours after the last administration. Control mice were injected at the same times and with same volume of vehicle.

Which results are given for O=C[C@@H]1CCCN1C(=O)[C@@H]1CCCN1C(=O)OCc1ccccc1 [Z-PP, N-benzyloxycarbonyl-prolyl-prolinal] (Cbz-Pro-Pro-aldehyde)?
food intake compared to vehicle controls ([1]; 5 mg ip, after 24 hours from the last injection): no difference; effect on food intake ([1]; 5 mg ip, ob/ob mice): suppress food intake, but with lower efficacy than that of B-PP; effect in reducing food intake ([1]; doses lower than 5 mg ip, ob/ob mice): ineffective

Which “food intake compared to 100% controls” value [2] does the source give for “Ac-Nle^4-c[Asp^5, D-Phe^7, Lys^10] α-MSH-(4-10)-NH2 [MTII]” here?
The value was 35.5%.

What does the source list for “Ac-STSMEHFRWGKP-COOH (Ac-STSMEHFRWGKP-OH) [α-MSH1-12, putative product of PRCP hydrolysis of α-MSH, lacks the C-terminal Val]”?
inhibition of rPRCP51 activity [3]: about 20%; hyperpolarization of POMC membrane potential [4]: undetectable; effect on food intake compared to saline controls [5]: did not significantly affect food intake; food intake ([5]; 2 hours from re-feeding): 8.89 ± 0.90 g

“t-butyl carbamate (BOC)-prolyl prolinal [B-PP]” was tested. Which “food intake, percent” value ([6]; after 24 hours from the administration, controls 94.91%) did it give?
Its value is 36.7%.

And the “food intake, percent” value ([6]; after 48 hours from the administration, controls 97.67%)?
The value was 89.24%.

What about the “effect on body weight gain” value [7] of the same compound?
Its value is “suppressed”.

What about the “effect on food intake” value [7] of the same compound?
Its value is “suppressed”.
